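All cell lines were grown in 96-well plates and treated with compound for 48 hours. At the GI50, growth is halved.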 The source made the active and inactive calls. Cut-off read from the data, not from the text of the source: active = GI50 up to about 1.1 µM and inactive = higher.
How the values were obtained:
Assay in all cases: NCI anticancer screen, dose series, 48 h
SF-295 = test system: SF-295
Malme-3M = test system: Malme-3M
M14 = test system: M14
SF-539 = test system: SF-539
NCI-H460 = test system: NCI-H460
UACC-257 = test system: UACC-257
OVCAR-3 = test system: OVCAR-3
NCI-H522 = test system: NCI-H522
OVCAR-4 = test system: OVCAR-4
UO-31 = test system: UO-31
IGROV-1 = test system: IGROV-1
A549 = test system: A549
CCRF-CEM = test system: CCRF-CEM
SF-268 = test system: SF-268
HCT-15 = test system: HCT-15
SN12C = test system: SN12C
OVCAR-8 = test system: OVCAR-8

| SMILES | GI50 (SF-295) | GI50 (Malme-3M) | GI50 (M14) | GI50 (SF-539) | GI50 (NCI-H460) | GI50 (UACC-257) | GI50 (OVCAR-3) | GI50 (NCI-H522) | GI50 (OVCAR-4) | GI50 (UO-31) | GI50 (IGROV-1) | GI50 (A549) | GI50 (CCRF-CEM) | GI50 (SF-268) | GI50 (HCT-15) [µM] | GI50 (SN12C) | GI50 (OVCAR-8) |
| --- | --- | --- | --- | --- | --- | --- | --- | --- | --- | --- | --- | --- | --- | --- | --- | --- | --- |
| CC(=O)C1=C(O)C2C3c4c[nH]c5cccc(c45)CC3C(C)(C)N2C1=O (stereo not given) | 24.3 µM (inactive) | 33.9 µM (inactive) | > 100 µM (inactive) | 15.6 µM (inactive) | 10.8 µM (inactive) | 62.2 µM (inactive) | 23.1 µM (inactive) | 11.9 µM (inactive) | > 100 µM (inactive) | 25.6 µM (inactive) | > 100 µM (inactive) | 28.7 µM (inactive) | 27.2 µM (inactive) | 27.4 µM (inactive) | 34.6 | – | – |
| Cc1cccc(C)c1N1C(=O)C(=O)C(c2nc3ccccc3s2)/C(=N\N)C1=O (stereo not given) | > 100 µM (inactive) | > 100 µM (inactive) | > 100 µM (inactive) | > 100 µM (inactive) | > 100 µM (inactive) | > 100 µM (inactive) | > 100 µM (inactive) | 39.4 µM (inactive) | > 100 µM (inactive) | > 100 µM (inactive) | > 100 µM (inactive) | > 100 µM (inactive) | – | > 100 µM (inactive) | > 100 | 78.7 µM (inactive) | > 100 µM (inactive) |
| CCOC(=O)C1N(S(=O)(=O)c2ccc(C)cc2)CCC12c1ccccc1NC2c1ccc(OC)c(OC)c1 (stereo not given) | > 100 µM (inactive) | > 100 µM (inactive) | > 100 µM (inactive) | > 100 µM (inactive) | > 100 µM (inactive) | > 100 µM (inactive) | > 100 µM (inactive) | > 100 µM (inactive) | > 100 µM (inactive) | > 100 µM (inactive) | 14.6 µM (inactive) | > 100 µM (inactive) | 80.5 µM (inactive) | > 100 µM (inactive) | > 100 | > 100 µM (inactive) | > 100 µM (inactive) |
| CC(C)(C)C1=CC(=C2C(=O)C(=O)c3ccccc3C2=O)C=C(C(C)(C)C)C1=O | > 100 µM (inactive) | 26.5 µM (inactive) | 37.5 µM (inactive) | 82.2 µM (inactive) | 85.5 µM (inactive) | 29.4 µM (inactive) | 33 µM (inactive) | 18.7 µM (inactive) | – | 43.7 µM (inactive) | 24.1 µM (inactive) | > 100 µM (inactive) | 36.5 µM (inactive) | > 100 µM (inactive) | 35.5 | 72.9 µM (inactive) | 51.3 µM (inactive) |
| Cc1nc2cc(N)c(F)cc2[nH]1 | > 100 µM (inactive) | > 100 µM (inactive) | – | > 100 µM (inactive) | > 100 µM (inactive) | > 100 µM (inactive) | – | > 100 µM (inactive) | > 100 µM (inactive) | > 100 µM (inactive) | > 100 µM (inactive) | > 100 µM (inactive) | > 100 µM (inactive) | > 100 µM (inactive) | – | > 100 µM (inactive) | > 100 µM (inactive) |
| CC(C)=CC(=O)CC(=O)C(=O)NCCNC(=O)C(=O)CC(=O)C=C(C)C | > 50 µM (inactive) | > 50 µM (inactive) | > 50 µM (inactive) | > 50 µM (inactive) | > 50 µM (inactive) | > 50 µM (inactive) | > 50 µM (inactive) | – | > 50 µM (inactive) | > 50 µM (inactive) | > 50 µM (inactive) | > 50 µM (inactive) | – | > 50 µM (inactive) | > 50 | > 50 µM (inactive) | > 50 µM (inactive) |
| CCOC(=O)C(OCC1CC=CCC1)Sc1ccccc1 (stereo not given) | > 100 µM (inactive) | > 100 µM (inactive) | > 100 µM (inactive) | > 100 µM (inactive) | > 100 µM (inactive) | > 100 µM (inactive) | > 100 µM (inactive) | > 100 µM (inactive) | – | > 100 µM (inactive) | > 100 µM (inactive) | > 100 µM (inactive) | > 100 µM (inactive) | > 100 µM (inactive) | > 100 | > 100 µM (inactive) | > 100 µM (inactive) |
| C#Cc1ccccc1N1C(=O)C=CC1=O | > 100 µM (inactive) | > 100 µM (inactive) | > 100 µM (inactive) | – | > 100 µM (inactive) | > 100 µM (inactive) | > 100 µM (inactive) | > 100 µM (inactive) | > 100 µM (inactive) | > 100 µM (inactive) | > 100 µM (inactive) | > 100 µM (inactive) | > 100 µM (inactive) | > 100 µM (inactive) | – | > 100 µM (inactive) | > 100 µM (inactive) |
| COC(=O)c1nn(-c2ccccc2)c(=O)cc1N=[N+]=[N-] | > 100 µM (inactive) | > 100 µM (inactive) | > 100 µM (inactive) | > 100 µM (inactive) | > 100 µM (inactive) | > 100 µM (inactive) | > 100 µM (inactive) | > 100 µM (inactive) | > 100 µM (inactive) | > 100 µM (inactive) | > 100 µM (inactive) | > 100 µM (inactive) | > 100 µM (inactive) | > 100 µM (inactive) | > 100 | > 100 µM (inactive) | > 100 µM (inactive) |
| Cc1ccc(C2=NO[C@@H]3C(=O)N(c4ccc(Cc5ccc(N6C(=O)[C@H]7C(c8ccc(C)cc8)=NO[C@H]7C6=O)cc5)cc4)C(=O)[C@H]23)cc1 | > 100 µM (inactive) | > 100 µM (inactive) | > 100 µM (inactive) | > 100 µM (inactive) | > 100 µM (inactive) | 38.7 µM (inactive) | > 100 µM (inactive) | – | > 100 µM (inactive) | > 100 µM (inactive) | > 100 µM (inactive) | > 100 µM (inactive) | > 100 µM (inactive) | > 100 µM (inactive) | > 100 | > 100 µM (inactive) | > 100 µM (inactive) |
| O=C1NC2=C(CCCCC/C2=N\O)C12CCCCCC2 | > 100 µM (inactive) | > 100 µM (inactive) | > 100 µM (inactive) | > 100 µM (inactive) | > 100 µM (inactive) | > 100 µM (inactive) | > 100 µM (inactive) | > 100 µM (inactive) | > 100 µM (inactive) | > 100 µM (inactive) | > 100 µM (inactive) | > 100 µM (inactive) | > 100 µM (inactive) | > 100 µM (inactive) | > 100 | > 100 µM (inactive) | > 100 µM (inactive) |
| C/C(=C1/CCCC2(N=NCC2c2ccccc2)C1=O)c1ccccc1 (stereo not given) | 30.9 µM (inactive) | 21 µM (inactive) | 13.8 µM (inactive) | 41.2 µM (inactive) | 26.3 µM (inactive) | 22.1 µM (inactive) | 17.6 µM (inactive) | 14.8 µM (inactive) | 30.7 µM (inactive) | 20.9 µM (inactive) | 42.4 µM (inactive) | 20.4 µM (inactive) | 19.6 µM (inactive) | 65.3 µM (inactive) | 35.1 | 40.5 µM (inactive) | 21.3 µM (inactive) |
| Cc1ccccc1Cn1nc2ccccc2cc1=O | > 100 µM (inactive) | > 100 µM (inactive) | > 100 µM (inactive) | > 100 µM (inactive) | > 100 µM (inactive) | > 100 µM (inactive) | > 100 µM (inactive) | – | > 100 µM (inactive) | > 100 µM (inactive) | > 100 µM (inactive) | > 100 µM (inactive) | > 100 µM (inactive) | > 100 µM (inactive) | > 100 | > 100 µM (inactive) | > 100 µM (inactive) |
| Fc1cccc2c1cc1ccc3cccc4ccc2c1c34 | > 100 µM (inactive) | > 100 µM (inactive) | > 100 µM (inactive) | > 100 µM (inactive) | – | 95.7 µM (inactive) | > 100 µM (inactive) | > 100 µM (inactive) | > 100 µM (inactive) | > 100 µM (inactive) | > 100 µM (inactive) | > 100 µM (inactive) | > 100 µM (inactive) | > 100 µM (inactive) | – | > 100 µM (inactive) | > 100 µM (inactive) |
| C1OC1CN1CCN(CC2CO2)CC1 (stereo not given) | 42 µM (inactive) | > 100 µM (inactive) | 54.6 µM (inactive) | 37.4 µM (inactive) | 6.53 µM (inactive) | > 100 µM (inactive) | > 100 µM (inactive) | > 100 µM (inactive) | > 100 µM (inactive) | 97.5 µM (inactive) | > 100 µM (inactive) | 17.5 µM (inactive) | 2.49 µM (inactive) | 22.8 µM (inactive) | > 100 | 32.1 µM (inactive) | > 75.7 µM (inactive) |
| CC(C)NC(C)C(C)c1ccccc1 (stereo not given) | > 100 µM (inactive) | > 100 µM (inactive) | > 100 µM (inactive) | > 100 µM (inactive) | > 100 µM (inactive) | > 100 µM (inactive) | > 100 µM (inactive) | > 100 µM (inactive) | > 100 µM (inactive) | > 100 µM (inactive) | > 100 µM (inactive) | > 100 µM (inactive) | > 100 µM (inactive) | > 100 µM (inactive) | – | > 100 µM (inactive) | > 100 µM (inactive) |
| CCCC(=O)Nc1ccc(O)c2c1C1CCCCCC21 (stereo not given) | 50.2 µM (inactive) | > 100 µM (inactive) | > 100 µM (inactive) | – | > 100 µM (inactive) | 46.7 µM (inactive) | – | 75.5 µM (inactive) | 68.5 µM (inactive) | 63.2 µM (inactive) | – | > 100 µM (inactive) | > 100 µM (inactive) | > 100 µM (inactive) | 74 | > 100 µM (inactive) | > 100 µM (inactive) |
| CN1CCN(c2nc(N)c(Br)c(Cl)n2)CC1 | > 100 µM (inactive) | > 100 µM (inactive) | > 100 µM (inactive) | – | > 100 µM (inactive) | > 100 µM (inactive) | > 100 µM (inactive) | > 100 µM (inactive) | > 100 µM (inactive) | > 100 µM (inactive) | > 100 µM (inactive) | > 100 µM (inactive) | > 100 µM (inactive) | > 100 µM (inactive) | > 100 | > 100 µM (inactive) | > 100 µM (inactive) |

Reference: ChEMBL document CHEMBL1201862, “PubChem BioAssay data set” (2004)
